This test has as its target T1, CBL-B (Homo sapiens, UniProt Q13191).
T1 construct: GST
The test is described as follows: CBL-B TR-FRET IC50 screening (E1/E2 ubiquitination, Biotin-Ubiquitin, Anti GST-Tb donor / Streptavidin-d2 acceptor). It is filed as biochemical. The following applies: second part of Table 2 (head 'Patent Cmpd No / Updated Activity'); same CBL-B TR-FRET IC50 bins A-F; read-out: Updated Activity. A general note: TR-FRET usually uses a lanthanide donor and a delayed reading to cut background.
T1 sequence (Q13191 whole entry): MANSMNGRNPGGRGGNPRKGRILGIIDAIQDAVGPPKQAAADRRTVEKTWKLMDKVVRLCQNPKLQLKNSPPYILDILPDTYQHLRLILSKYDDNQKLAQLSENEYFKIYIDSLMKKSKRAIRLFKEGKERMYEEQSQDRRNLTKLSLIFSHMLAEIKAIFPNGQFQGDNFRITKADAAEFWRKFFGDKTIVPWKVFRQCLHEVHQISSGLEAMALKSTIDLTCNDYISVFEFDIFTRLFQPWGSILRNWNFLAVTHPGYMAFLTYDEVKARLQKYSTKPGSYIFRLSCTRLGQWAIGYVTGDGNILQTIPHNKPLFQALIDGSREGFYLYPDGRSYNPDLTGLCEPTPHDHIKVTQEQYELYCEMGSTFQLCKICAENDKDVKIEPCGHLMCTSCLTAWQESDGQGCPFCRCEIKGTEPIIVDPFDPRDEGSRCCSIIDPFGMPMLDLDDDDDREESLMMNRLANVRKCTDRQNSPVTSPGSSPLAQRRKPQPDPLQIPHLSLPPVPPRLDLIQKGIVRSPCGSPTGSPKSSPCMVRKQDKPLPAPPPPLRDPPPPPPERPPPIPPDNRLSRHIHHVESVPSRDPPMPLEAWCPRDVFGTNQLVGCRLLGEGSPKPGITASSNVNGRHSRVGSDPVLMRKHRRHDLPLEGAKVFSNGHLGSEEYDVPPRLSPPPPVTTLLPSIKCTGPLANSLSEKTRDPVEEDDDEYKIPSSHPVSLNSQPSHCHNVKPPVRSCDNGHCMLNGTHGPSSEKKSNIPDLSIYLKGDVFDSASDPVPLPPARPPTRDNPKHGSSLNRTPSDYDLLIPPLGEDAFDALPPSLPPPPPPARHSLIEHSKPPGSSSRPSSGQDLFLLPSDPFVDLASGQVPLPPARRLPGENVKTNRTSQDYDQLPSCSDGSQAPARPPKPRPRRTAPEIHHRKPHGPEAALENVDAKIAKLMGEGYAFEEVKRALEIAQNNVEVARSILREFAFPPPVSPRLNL
Take `CN1CCC2(CN(Cc3cc(C(F)(F)F)c4cn(-c5cccc([C@H](c6nncn6C)C6CCC6)c5)c(=O)n4c3)C2)C1=O` [Compound 622]: the IC50 is less than 100 nM.
With `C[C@H]1CCCN(Cc2cc(C(F)(F)F)c3cn(-c4cccc(C5(c6nncs6)CC(C)(C)C5)c4)c(=O)n3c2)C1` [Compound 624] the figure was 301 to 1000 nM; with `Cn1cnnc1[C@@H](c1cccc(-n2cc3c(C(F)(F)F)cc(CN4CCCC(n5cnnc5)C4)cn3c2=O)c1)C1CCC1` (some centres unmarked) [Compound 625], less than 100 nM.
On to `C[C@H]1CCCN(Cc2cc(C(F)(F)F)c3cn(-c4cccc(C5(c6nncs6)CCC5)c4)c(=O)n3c2)C1` [Compound 626], for which the IC50 is less than 100 nM.
On to `C[C@H]1CCCN(Cc2cc(C(F)(F)F)c3cn(-c4cc([C@@H](c5nncn5C)C5CCC5)ccn4)c(=O)n3c2)C1` [Compound 627_P1], for which the IC50 was less than 100 nM.
Consider `C[C@H]1CCCN(Cc2cc(C(F)(F)F)c3cn(-c4cc([C@H](c5nncn5C)C5CCC5)ccn4)c(=O)n3c2)C1` [Compound 627_P2], for which the IC50 fell in the range of 1000 to 3000 nM.
`C[C@H]1CCCN(Cc2cc(C(F)(F)F)c3cn(-c4cncc([C@@H](c5nncn5C)C5CCC5)c4)c(=O)n3c2)C1` [Compound 628_P1]: the IC50 is less than 100 nM.
For `C[C@H]1CCCN(Cc2cc(C(F)(F)F)c3cn(-c4cncc([C@H](c5nncn5C)C5CCC5)c4)c(=O)n3c2)C1` [Compound 628_P2], the IC50 lay in the range of 3000 to 10000 nM.

Values taken from US20240228482A1, “COMPOUNDS, COMPOSITIONS AND METHODS OF TREATING CANCER” (HOTSPOT THERAPEUTICS, INC., priority 2021, published 2024).
